{"source": "paper PMC10125328", "about": "(ACS Bio & Med Chem Au, 2023)", "key": {"Ftu-1 β-lactamase [1]": {"biological_target": "T1, Ftu-1 β-lactamase (Francisella tularensis, UniProt Q5NH60)", "T1 sequence (Q5NH60 1-287)": "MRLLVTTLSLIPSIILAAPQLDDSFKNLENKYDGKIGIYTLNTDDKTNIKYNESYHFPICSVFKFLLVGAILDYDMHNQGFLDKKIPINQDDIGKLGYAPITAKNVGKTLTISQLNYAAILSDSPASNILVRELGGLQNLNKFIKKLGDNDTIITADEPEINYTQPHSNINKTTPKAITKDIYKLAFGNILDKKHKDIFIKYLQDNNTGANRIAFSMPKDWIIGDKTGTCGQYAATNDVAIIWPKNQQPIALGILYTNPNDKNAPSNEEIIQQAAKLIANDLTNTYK", "format": "biochemical"}, "Ftu-1 β-lactamase [2]": {"biological_target": "T1, Ftu-1 β-lactamase", "conditions": "cited from earlier work"}, "Ftu-1 β-lactamase [3]": {"biological_target": "T1, Ftu-1 β-lactamase", "assay": "biochemical"}}, "note": "Several values for one entry are separate records, joined by “and”; a condition that tells them apart may be missing. Equal entries are not always repeated. Where two headings read alike, the source gives them in different places.", "data": [{"smiles": "O=C(Cc1cccs1)N[C@@H]1C(=O)N2C(C(=O)O)=C(CSc3ccc([N+](=O)[O-])c(C(=O)O)c3)CS[C@H]12", "note": "[CENTA]", "values": [{"measurement": "Km", "setting": "Ftu-1 β-lactamase [1]; pH 4.8", "result": "655 ± 37.1", "unit": "µM"}, {"measurement": "Vmax", "setting": "Ftu-1 β-lactamase [1]; pH 4.8", "result": "1.001 ± 0.005", "unit": "µM/min"}, {"measurement": "kcat", "setting": "Ftu-1 β-lactamase [1]; pH 4.8", "result": "101 ± 1", "unit": "min^–1"}, {"measurement": "Vmax", "setting": "Ftu-1 β-lactamase [1]; pH 5.8", "result": "13.12 ± 0.62", "unit": "µM/min"}, {"measurement": "kcat", "setting": "Ftu-1 β-lactamase [1]; pH 5.8", "result": "1312.75 ± 62.75", "unit": "min^–1"}, {"measurement": "Vmax", "setting": "Ftu-1 β-lactamase [1]; pH 6.4", "result": "24.8 ± 0.9", "unit": "µM/min"}, {"measurement": "Vmax", "setting": "Ftu-1 β-lactamase [1]; pH 7.2", "result": "30.5 ± 0.5", "unit": "µM/min"}, {"measurement": "Km", "setting": "Ftu-1 β-lactamase [1]; pH 7.6", "result": "128 ± 57", "unit": "µM"}, {"measurement": "Vmax", "setting": "Ftu-1 β-lactamase [1]; pH 7.6", "result": "49.51 ± 15.84", "unit": "µM/min"}, {"measurement": "kcat", "setting": "Ftu-1 β-lactamase [1]; pH 7.6", "result": "4951.67 ± 1583", "unit": "min^–1"}, {"measurement": "Km", "setting": "Ftu-1 β-lactamase [1]; pH 8.5", "result": "228 ± 11.1", "unit": "µM"}, {"measurement": "kcat", "setting": "Ftu-1 β-lactamase [1]; pH 9.5", "result": "38.96 ± 11.2", "unit": "min^–1"}, {"measurement": "Km", "setting": "Ftu-1 β-lactamase [1]; pH 10.5", "result": "218 ± 30.8", "unit": "µM"}, {"measurement": "kcat", "setting": "Ftu-1 β-lactamase [1]; pH 10.5", "result": "8.85 ± 0.15", "unit": "min^–1"}]}, {"smiles": "C[C@H]1[C@H](NC(=O)/C(=N\\OC(C)(C)C(=O)O)c2csc(N)n2)C(=O)N1S(=O)(=O)O", "note": "[aztreonam]", "values": [{"measurement": "hydrolysis in the presence of Ftu-1", "setting": "Ftu-1 β-lactamase [2]", "result": "unhydrolyzed"}]}, {"smiles": "CO[C@@]1(NC(=O)Cc2cccs2)C(=O)N2C(C(=O)O)=C(COC(N)=O)CS[C@@H]21", "note": "[cefoxitin]", "values": [{"measurement": "hydrolysis in the presence of Ftu-1", "setting": "Ftu-1 β-lactamase [2]", "result": "unhydrolyzed"}]}, {"smiles": "CC(C)(O/N=C(\\C(=O)N[C@@H]1C(=O)N2C(C(=O)[O-])=C(C[n+]3ccccc3)CS[C@H]12)c1csc(N)n1)C(=O)O", "note": "[ceftazidime]", "values": [{"measurement": "kcat", "setting": "Ftu-1 β-lactamase [2]", "result": "0.022 ± 0.001", "unit": "S^–1"}]}, {"smiles": "CO/N=C(\\C(=O)N[C@@H]1C(=O)N2C(C(=O)O)=C(COC(N)=O)CS[C@H]12)c1ccco1", "note": "[cefuroxime]", "values": [{"measurement": "Km", "setting": "Ftu-1 β-lactamase [2]", "result": "14 ± 2", "unit": "µM"}]}, {"smiles": "O=C(O)[C@H]1/C(=C/CO)O[C@@H]2CC(=O)N21", "note": "[clavulanic acid]", "values": [{"measurement": "Ki", "setting": "Ftu-1 β-lactamase [3]", "result": 30.7, "unit": "µM"}]}, {"smiles": "C[C@@H](O)[C@H]1C(=O)N2C(C(=O)O)=C(SCCN=CN)C[C@H]12", "note": "[imipenem]", "values": [{"measurement": "Km", "setting": "Ftu-1 β-lactamase [2]", "result": "31 ± 4", "unit": "µM"}, {"measurement": "kcat", "setting": "Ftu-1 β-lactamase [2]", "result": "0.017 ± 0.001", "unit": "S^–1"}, {"measurement": "Ki", "setting": "Ftu-1 β-lactamase [3]", "result": 73.8, "unit": "µM"}]}, {"smiles": "C[C@@H](O)[C@H]1C(=O)N2C(C(=O)O)=C(S[C@@H]3CN[C@H](C(=O)N(C)C)C3)[C@H](C)[C@H]12", "note": "[meropenem]", "values": [{"measurement": "Ki", "setting": "Ftu-1 β-lactamase [3]", "result": 1.53, "unit": "µM"}]}, {"smiles": "CC1(C)[C@H](C(=O)O)N2C(=O)C[C@H]2S1(=O)=O", "note": "[sulbactam]", "values": [{"measurement": "Ki", "setting": "Ftu-1 β-lactamase [3]", "result": 21.1, "unit": "µM"}]}, {"smiles": "C[C@]1(Cn2ccnn2)[C@H](C(=O)O)N2C(=O)C[C@H]2S1(=O)=O", "note": "[tazobactam]", "values": [{"measurement": "Ki", "setting": "Ftu-1 β-lactamase [3]", "result": "1.19 µM and 1.2 µM"}]}]}
